Results from publication PMC11881906, “Development of xanthone derivatives as effective broad-spectrum antimicrobials: Disrupting cell wall and inhibiting DNA synthesis” (Science Advances, 2025).
Converted amounts (≈) assume the structure as drawn.

Key:
[1] = In vitro cytotoxicity (CC50); assay type: cell-based; details: human, mouse, HepG2 cells and mouse fibroblast NCTC clone 929 cells; mammalian cells, CCK-8; read-out: concentration of cytotoxicity 50% (CC50)
Description: Cytotoxicity of the compound tested was assessed by CCK-8 assays as previously described ([71]). […] Following a 24-hour incubation, 10 μl of CCK-8 reagent was added to each well and incubated for 1 hour. The absorbance at 450 nm was measured by a microplate reader. All measurements were repeated three times with duplicates each time.

P. aeruginosa ATCC 9027 = test: Time-kill kinetic assay; assay type: cell-based, Pseudomonas aeruginosa; details: 5× MIC
Description: (§1) The bacterial cultures were standardized to obtain an initial density that ranged from 10^5 to 10^6 cells/ml. The cultures were incubated in a shaking bath at 37°C. Viable counts were determined at 0-, 0.5-, 1.0-, 2.0-, 4.0-, 8.0-, and 24-hour intervals by spotting 10-μl aliquots of serially 10-fold diluted cultures onto Mueller-Hinton agar (MHA) plates. After incubation at 37°C for 24 hours, the bactericidal activity, defined as the ability to reduce the initial inoculum by 3 log10 CFU/ml, was examined for each tested concentration over time. All measurements were repeated three times with duplicates each time.

S. aureus ATCC 29213 [2] = test: DiSC3(5) membrane depolarization assay; assay type: cell-based, Staphylococcus aureus; details: 1× to 8× MIC
Description: The DiSC3(5) assay was carried out to investigate the cytoplasmic membrane depolarization. Mid-log phase bacteria culture was centrifuged and resuspended in sterile Hepes buffer [5 mM (pH 7.4)] to adjust the concentration of bacterial cells to obtain OD600 of 0.1. The bacterial suspension was then incubated with 2 μM DiSC3(5) for 1 hour without being exposed to the light. The change in fluorescence intensity was monitored by a BioTek multidetector microplate reader with an excitation wavelength of 622 nm and an emission wavelength of 670 nm. […] All measurements were repeated three times with duplicates each time.

S. aureus ATCC 29213 [3] = test: Time-kill kinetic assay; assay type: cell-based, Staphylococcus aureus; details: 10× MIC, 24 hours
Description: as §1, with “After incubation at 37°C for 24 hours, the bactericidal activity, defined as the ability to reduce the initial inoculum by 3 log10 CFU/ml, was examined for each tested concentration over time.” left out

E. coli DNA gyrase = target: T1, E. coli DNA gyrase (Escherichia coli, UniProt P0AES4+P0AES6); test: DNA gyrase supercoiling inhibition assay; assay type: biochemical
T1 construct: purchased ProFoldin (Worcester, MA)
Description: E. coli topoisomerase enzymes (II and IV) were supplied by ProFoldin (Worcester, MA), and assays were performed according to the manufacturer’s instructions. Briefly, the DNA supercoiling assay was conducted in a volume of 40 μl containing 24 μl of H2O, 4 μl of 10× buffer, 4 μl of 10× relaxed DNA, 4 μl of 10× enzyme, and 4 μl of 10 mM adenosine triphosphate (ATP). Following a 60-min incubation at room temperature, 200 μl of H2O was added to each reaction mixture. Topoisomerase IV decatenation inhibition assay was conducted in a volume of 50 μl containing 38.5 μl of H2O, 5 μl of 10× buffer, 5 μl of 10× concatenated DNA, 0.5 μl of 100× enzyme, and 1 μl of 10 mM ATP. After 60 min of incubation at 37°C, 5 μl of 0.4 M EDTA was added to stop the reaction. […]
In the supercoiling inhibition assay, the fluorescence intensity was measured using freshly prepared 1× H19 dye, which was prepared by diluting 100× H19 dye with 10 mM tris-HCl and 10 mM NaCl (pH 7.0). […] In the decatenation inhibition assay, the change in fluorescence intensity was monitored using the 1× fluorescence dye after diluting the 20× dye with water. The reaction solution eluted from the column was mixed with 150 μl of 1× fluorescence dye. The fluorescence intensity for both assays was lastly detected at 535 nm using an excitation wavelength of 485 nm. […]

Gram-negative bacteria = test: MIC, Gram-negative strains; assay type: cell-based; details: read-out: MICs against Gram-negative bacteria
Description: (§2) MIC was determined using the broth microdilution method in accordance with Clinical and Laboratory Standards Institute guidelines. All compounds were dissolved in dimethyl sulfoxide (DMSO; final DMSO concentration of less than 0.5%) and sterile double-distilled water and then diluted with Mueller-Hinton broth (MHB). Each compound’s stock solution was serially twofold diluted, resulting in concentrations ranging from 0.39 to 100 μg/ml, and thereafter added to sterile 96-well plates. All bacterial cell suspensions were adjusted in MHB to attain a starting inoculum of 1 × 10^6 cells/ml. A total of 100 μl volume of the bacterial suspension was then added to each well. Following a 24-hour incubation at 37°C, the optical density at 600 nm (OD600) was confirmed by measuring absorbance at 600 nm with a BioTek microplate reader. […] All measurements were repeated three times with duplicates each time.

[4] = test system: tested strains (Gram-positive and Gram-negative bacteria); test: MIC, summary over the tested strains; assay type: cell-based
Description: as §2

T1 sequence (P0AES4 whole entry, one chain of several): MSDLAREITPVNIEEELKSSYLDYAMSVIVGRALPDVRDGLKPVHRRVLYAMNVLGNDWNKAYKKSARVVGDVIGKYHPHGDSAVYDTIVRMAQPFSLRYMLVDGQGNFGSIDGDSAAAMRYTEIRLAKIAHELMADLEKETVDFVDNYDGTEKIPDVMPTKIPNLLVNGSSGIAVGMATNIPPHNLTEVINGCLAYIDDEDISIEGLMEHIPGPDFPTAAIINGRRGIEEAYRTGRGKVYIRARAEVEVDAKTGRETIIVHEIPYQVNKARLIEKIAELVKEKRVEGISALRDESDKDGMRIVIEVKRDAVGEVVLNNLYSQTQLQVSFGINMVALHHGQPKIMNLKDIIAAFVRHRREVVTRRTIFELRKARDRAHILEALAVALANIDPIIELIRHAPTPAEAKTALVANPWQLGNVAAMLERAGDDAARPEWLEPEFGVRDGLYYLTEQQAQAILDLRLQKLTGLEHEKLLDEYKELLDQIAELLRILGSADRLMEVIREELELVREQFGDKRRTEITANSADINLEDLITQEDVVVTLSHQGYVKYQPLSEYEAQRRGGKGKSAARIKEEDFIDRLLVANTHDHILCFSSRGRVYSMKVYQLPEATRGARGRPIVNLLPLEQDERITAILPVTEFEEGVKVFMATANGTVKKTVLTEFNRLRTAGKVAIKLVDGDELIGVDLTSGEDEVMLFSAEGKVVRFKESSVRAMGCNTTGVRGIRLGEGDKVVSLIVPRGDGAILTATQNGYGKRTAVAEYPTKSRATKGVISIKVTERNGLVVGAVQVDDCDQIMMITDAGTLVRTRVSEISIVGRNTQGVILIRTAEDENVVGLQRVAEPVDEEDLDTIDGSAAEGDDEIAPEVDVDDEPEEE

In the case of `CC(C)=CCOc1cc(OCCCNC(=N)N)cc2oc3cc(OCCCNC(=N)N)ccc3c(=O)c12` [XT17], the CC50 at 24 h [1] is reported as over 50 µg/mL, the “log bacterial load reduction” value (P. aeruginosa ATCC 9027; 1 hour) is reported as 3.24 log and the bacterial regrowth (P. aeruginosa ATCC 9027; at 24 hours) is reported as “no bacterial regrowth was observed”. For the same molecule, the “DiSC3(5) fluorescence intensity (membrane depolarization)” value (S. aureus ATCC 29213 [2]) was “no changes in fluorescence intensity”, the “log decrease in bacterial load” value (S. aureus ATCC 29213 [3]) was 5.16 log and the “Inhibition of DNA gyrase (%)” value (E. coli DNA gyrase; 1× MIC) was 81.45 ± 1.33%. For the same molecule, the “inhibitory effect on bacterial DNA gyrase in vitro” value (E. coli DNA gyrase; concentration not stated (Discussion)) was ~ 90%, the MIC (Gram-negative bacteria) was 3.12 µg/mL (≈ 6.12 µM) and the “fold increase in antibacterial activity” value ([4]; guanidine XT17 versus primary amine XT07) was 8- to 32 fold. For the same molecule, the MIC ([4]; read-out: MICs against the tested strains) was 0.39 to 3.12 µg/mL (≈ 0.764 to 6.12 µM).
